# Assay results from PubChem BioAssay (NCI).
# Several values for one entry are separate records, joined by “and”; a condition that tells them apart may be missing. Equal entries are not always repeated.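 Step 1: Grow cells in 96-well plates. Step 2: Expose to compound for 48 hours at 5 concentrations. Step 3: Interpolate endpoints linearly; if unreached, use highest concentration. GI50 marks 50% less growth. TGI is the concentration that stops growth completely.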 Where a SMILES comes first, the peptide text is derived from it. [ ]: non-standard residue; d: D form. The star is where a group is joined. ξ: configuration not given here. ξPhe(4-NO2) = NC(Cc1ccc([N+](=O)[O-])cc1)C(=O)O; Boc = CC(C)(C)OC(=O)*; OBn = c1ccc(CO*)cc1
# Assays:
# Experiment in all cases: inhibition of tumour cell growth, NCI panel, 48 h
# HT29 colon = system: HT29 colon
# HCC-2998 colon = system: HCC-2998 colon
# COLO 205 colon = system: COLO 205 colon
# MDA-MB-231 breast = system: MDA-MB-231 breast
# CCRF-CEM leukemia = system: CCRF-CEM leukemia
# UO-31 renal = system: UO-31 renal
# OVCAR-3 ovarian = system: OVCAR-3 ovarian
# HOP-62 NSCLC = system: HOP-62 NSCLC
# TK-10 renal = system: TK-10 renal
# OVCAR-8 ovarian = system: OVCAR-8 ovarian
# EKVX NSCLC = system: EKVX NSCLC
# BT-549 breast = system: BT-549 breast
# LOX IMVI melanoma = system: LOX IMVI melanoma
# T-47D breast = system: T-47D breast
smiles,measurement,setting,value
NC1=CC(C(=O)c2ccncc2)c2nc3ccccc3nc21 (stereo unspecified),TGI,HT29 colon,> 100 µM
same,TGI,HCC-2998 colon,> 100 µM
same,TGI,COLO 205 colon,> 100 µM
same,TGI,MDA-MB-231 breast,> 100 µM
same,TGI,CCRF-CEM leukemia,> 100 µM
same,TGI,UO-31 renal,> 100 µM
same,TGI,OVCAR-3 ovarian,> 100 µM
same,TGI,HOP-62 NSCLC,> 100 µM
same,TGI,TK-10 renal,> 100 µM
same,TGI,OVCAR-8 ovarian,> 100 µM
same,TGI,EKVX NSCLC,> 100 µM
same,TGI,BT-549 breast,> 100 µM
same,TGI,LOX IMVI melanoma,88.1 µM
same,TGI,T-47D breast,> 100 µM
CN(C)CCOC1(Cc2ccc(Cl)cc2Cl)CCC(C(C)(C)C)CC1 (stereo unspecified),TGI,HT29 colon,3.16 µM and 3.13 µM
same,TGI,HCC-2998 colon,3.37 µM and 3.23 µM
same,TGI,COLO 205 colon,3.28 µM and 3.23 µM
same,GI50,MDA-MB-231 breast,3.39 µM
same,TGI,MDA-MB-231 breast,8.16 µM and 3.34 µM
same,TGI,CCRF-CEM leukemia,4.69 µM and 5.32 µM
same,GI50,UO-31 renal,2.17 µM and 1.45 µM
same,TGI,UO-31 renal,6.27 µM and 2.83 µM
same,GI50,OVCAR-3 ovarian,2.03 µM
same,TGI,OVCAR-3 ovarian,3.07 µM and 3.92 µM
same,TGI,HOP-62 NSCLC,3.06 µM and 3.32 µM
same,GI50,TK-10 renal,2.02 µM
same,TGI,TK-10 renal,4.99 µM and 2.75 µM
same,TGI,OVCAR-8 ovarian,3.59 µM and 3.74 µM
same,GI50,EKVX NSCLC,3.04 µM and 4.01 µM
same,TGI,EKVX NSCLC,8.25 µM and 9.01 µM
same,TGI,BT-549 breast,3.16 µM and 3.25 µM
same,TGI,LOX IMVI melanoma,2.97 µM and 3.06 µM
same,GI50,T-47D breast,1.92 µM and 2.09 µM
same,TGI,T-47D breast,4.42 µM and 4.24 µM
CCCCCC(=O)OCC(=O)[C@H]1[C@H](C)C[C@H]2[C@@H]3C[C@H](F)C4=C/C(=N/OC(=O)c5cccc6c(=O)c7ccccc7[nH]c56)C=C[C@]4(C)[C@H]3[C@@H](O)C[C@@]21C,TGI,HT29 colon,57.8 µM
same,TGI,HCC-2998 colon,82.4 µM
same,TGI,COLO 205 colon,72.8 µM
same,TGI,MDA-MB-231 breast,> 100 µM
same,TGI,CCRF-CEM leukemia,> 100 µM
same,TGI,UO-31 renal,50 µM
same,TGI,OVCAR-3 ovarian,65.5 µM
same,TGI,HOP-62 NSCLC,> 100 µM
same,TGI,TK-10 renal,> 100 µM
same,TGI,OVCAR-8 ovarian,65.9 µM
same,TGI,EKVX NSCLC,> 100 µM
same,TGI,BT-549 breast,66.5 µM
same,TGI,LOX IMVI melanoma,35.7 µM
same,TGI,T-47D breast,62.1 µM
CN1CC2=C(NC(=S)NC2c2ccc(Cl)cc2)/C(=C/c2ccc(Cl)cc2)C1 (stereo unspecified),TGI,HT29 colon,34 µM
same,TGI,HCC-2998 colon,34 µM
same,TGI,COLO 205 colon,33.3 µM
same,TGI,MDA-MB-231 breast,39.8 µM
same,TGI,CCRF-CEM leukemia,30.9 µM
same,TGI,UO-31 renal,> 100 µM
same,TGI,OVCAR-3 ovarian,29.3 µM
same,TGI,HOP-62 NSCLC,36.4 µM
same,TGI,TK-10 renal,> 100 µM
same,TGI,OVCAR-8 ovarian,37.8 µM
same,TGI,EKVX NSCLC,68.8 µM
same,TGI,BT-549 breast,48.6 µM
same,TGI,LOX IMVI melanoma,35.8 µM
same,TGI,T-47D breast,32.3 µM
N#CC1=C(C#N)/C(=C(\C#N)C(C#N)C#N)N=C1N,TGI,HT29 colon,62.1 µM
same,TGI,HCC-2998 colon,> 100 µM
same,TGI,COLO 205 colon,57.3 µM
same,TGI,MDA-MB-231 breast,> 100 µM
same,TGI,CCRF-CEM leukemia,50.7 µM
same,TGI,UO-31 renal,> 100 µM
same,TGI,OVCAR-3 ovarian,> 100 µM
same,TGI,HOP-62 NSCLC,> 66.6 µM
same,TGI,TK-10 renal,> 68.3 µM
same,TGI,OVCAR-8 ovarian,> 100 µM
same,TGI,EKVX NSCLC,> 100 µM
same,TGI,BT-549 breast,> 78.7 µM
same,TGI,LOX IMVI melanoma,55.8 µM
same,TGI,T-47D breast,> 100 µM
CC(C)(C)OC(=O)NC(Cc1ccc([N+](=O)[O-])cc1)C(=O)NCC(=O)OCc1ccccc1 (stereo unspecified) (Boc-[ξPhe(4-NO2)]-Gly-OBn),TGI,HT29 colon,61.3 µM
same,TGI,HCC-2998 colon,42 µM
same,TGI,COLO 205 colon,32.3 µM
same,TGI,MDA-MB-231 breast,80.3 µM
same,TGI,CCRF-CEM leukemia,48.8 µM
same,TGI,UO-31 renal,45.4 µM
same,TGI,OVCAR-3 ovarian,50.5 µM
same,TGI,HOP-62 NSCLC,36.7 µM
same,TGI,TK-10 renal,> 100 µM
same,TGI,OVCAR-8 ovarian,52.4 µM
same,TGI,EKVX NSCLC,> 100 µM
same,TGI,BT-549 breast,59.6 µM
same,TGI,LOX IMVI melanoma,31.2 µM
same,TGI,T-47D breast,> 100 µM
O=c1oc2ccccc2cc1-c1nnc(-c2ccccc2)s1,TGI,HT29 colon,> 100 µM
same,TGI,HCC-2998 colon,> 100 µM
same,TGI,COLO 205 colon,> 100 µM
same,TGI,MDA-MB-231 breast,46.3 µM
same,TGI,CCRF-CEM leukemia,> 100 µM
same,TGI,UO-31 renal,> 100 µM
same,TGI,OVCAR-3 ovarian,> 58.5 µM
same,TGI,HOP-62 NSCLC,> 57.1 µM
same,TGI,TK-10 renal,> 53.8 µM
same,TGI,OVCAR-8 ovarian,> 69.4 µM
same,TGI,EKVX NSCLC,> 100 µM
same,TGI,BT-549 breast,> 100 µM
same,TGI,LOX IMVI melanoma,> 100 µM
same,TGI,T-47D breast,> 85.2 µM
COc1cccc(-c2cccc(SC)n2)n1,TGI,HT29 colon,93.8 µM
same,TGI,HCC-2998 colon,75.5 µM
same,TGI,COLO 205 colon,40.2 µM
same,TGI,MDA-MB-231 breast,> 100 µM
same,TGI,CCRF-CEM leukemia,41.5 µM
same,TGI,UO-31 renal,> 100 µM
same,TGI,OVCAR-3 ovarian,61.1 µM
same,TGI,HOP-62 NSCLC,> 100 µM
same,TGI,TK-10 renal,> 100 µM
same,TGI,OVCAR-8 ovarian,> 100 µM
same,TGI,EKVX NSCLC,97.3 µM
same,TGI,BT-549 breast,> 100 µM
same,TGI,LOX IMVI melanoma,> 100 µM
same,TGI,T-47D breast,75.1 µM
Cc1cnc2[nH]c(-c3ccc(F)cc3)cc(=O)c2c1,TGI,HT29 colon,> 100 µM
same,TGI,HCC-2998 colon,> 100 µM
same,TGI,COLO 205 colon,> 52.7 µM
same,TGI,MDA-MB-231 breast,> 100 µM
same,TGI,CCRF-CEM leukemia,> 100 µM
same,TGI,UO-31 renal,> 100 µM
same,TGI,OVCAR-3 ovarian,> 78.3 µM
same,TGI,HOP-62 NSCLC,> 83.1 µM
same,TGI,TK-10 renal,> 100 µM
same,TGI,OVCAR-8 ovarian,> 100 µM
same,TGI,EKVX NSCLC,> 100 µM
same,TGI,BT-549 breast,> 100 µM
same,TGI,LOX IMVI melanoma,> 100 µM
same,TGI,T-47D breast,> 100 µM
O=C1SC(c2ccc(Cl)cc2)(c2ccc(Cl)cc2)c2ccccc21,TGI,HT29 colon,> 100 µM
same,TGI,HCC-2998 colon,> 100 µM
same,TGI,COLO 205 colon,> 100 µM
same,TGI,MDA-MB-231 breast,> 100 µM
same,TGI,CCRF-CEM leukemia,> 100 µM
same,TGI,UO-31 renal,> 100 µM
same,TGI,OVCAR-3 ovarian,> 100 µM
same,TGI,HOP-62 NSCLC,> 100 µM
same,TGI,TK-10 renal,> 100 µM
same,TGI,OVCAR-8 ovarian,> 100 µM
same,TGI,EKVX NSCLC,> 100 µM
same,TGI,BT-549 breast,> 100 µM
same,TGI,LOX IMVI melanoma,> 100 µM
same,TGI,T-47D breast,> 100 µM
